Measurements taken from patent publication EP1840134B1 (NOVO NORDISK A/S, priority 1998, dated 2016).

Tested on: monoclonal antibody specific for the N-terminal region of GLP-1 (7-37)
Assay: Cross reactivity of the RIA antibody used to determine plasma concentrations
Format: binding
Details: RIA at 4°C
Description: The entire procedure was carried out at 4°C.
The assay was carried out as follows: 100 µl plasma was mixed with 271 µl 96% ethanol, mixed using a vortex mixer and centrifuged at 2600*g for 30 min. The supernatant was decanted into Minisorp tubes and evaporated completely (Savant Speedvac AS290). The evaporation residue was reconstituted in the assay buffer consisting of 80 mM NaH2PO4/Na2HPO4, 0.1 % HSA (Orpha 20/21, Behring), 10 mM EDTA, 0.6 mM thiomersal (Sigma), pH 7.5. Samples were reconstituted in volumes suitable for their expected concentrations, and were allowed to reconstitute for 30 min. To 300 µl sample, 100 µl antibody solution in dilution buffer containing 40 mM NaH2PO4/Na2HPO4, 0.1 % HSA, 0.6 mM thiomersal, pH 7.5, was added. A non-specific sample was prepared by mixing 300 µl buffer with 100 µl dilution buffer. Individual standards were prepared from freeze dried stocks, dissolved in 300 µl assay buffer. All samples were pre-incubated in Minisorp tubes with antibody as described above for 72 h. […] Immediately after the centrifugation, the supernatant was decanted and counted in a γ-counter. The concentration in the samples was calculated from individual standard curves. Plasma concentrations were found, calculated as % of the maximum concentration for the individual compounds (n=2).

**Q.** With “GLP-1 (1-37) (HDEFERHAEGTFTSDVSSYLEGQAAKEFIAWLVKGRG; Glucagon-like peptide 1; UniProt P01275 92-128, looked up, fragment)” as the substance, how does the cross reactivities read?
**A.** Its cross reactivities is “less than 1%”.
